Laboratory results as given in publication PMC9578392, “Safety, Tolerability, and Pharmacokinetics of the Novel Antiviral Agent Ensitrelvir Fumaric Acid, a SARS-CoV-2 3CL Protease Inhibitor, in Healthy Adults” (Antimicrobial Agents and Chemotherapy, 2022).

Test: Blood lipid profiling, single-dose part (Supplementary Table 3)
Type: in vivo, human

**Q.** Which “HDL-C, Mean (SD)” value (Cohort C fasted state 250 mg single dose, Day 2 [Day 16], baseline mean 486.3) does the source give for `Cn1cnc(Cn2c(=O)[nH]/c(=N\c3cc4cn(C)nc4cc3Cl)n(Cc3cc(F)c(F)cc3F)c2=O)n1` [Ensitrelvir, ensitrelvir fumaric acid] here?
**A.** Its value is 376.3 (81.9) mg/L.

**Q.** What about the “LDL-C, Mean (SD)” value (Cohort C fasted state 250 mg single dose, Day 2 [Day 16], baseline mean 900.0) of the same molecule?
**A.** The value was 916.3 mg/L.

**Q.** What about the “Triglyceride, Mean (SD)” value (Cohort C fasted state 250 mg single dose, Day 4 [Day 18], baseline mean 0.9596) of the same molecule?
**A.** The value was 1.2235 mmol/L.

**Q.** What about the “Cholesterol, Mean (SD)” value (Cohort C fasted state 250 mg single dose, Day 4 [Day 18], baseline mean 4.1053) of the same molecule?
**A.** The value was 3.9695 mmol/L.

**Q.** What about the “HDL-C, Mean (SD)” value (Cohort C fasted state 250 mg single dose, Day 4 [Day 18], baseline mean 486.3) of the same molecule?
**A.** The value was 401.3 (66.4) mg/L.

**Q.** What about the “LDL-C, Mean (SD)” value (Cohort C fasted state 250 mg single dose, Day 4 [Day 18], baseline mean 900.0) of the same molecule?
**A.** The value was 942.5 mg/L.

**Q.** And the “Triglyceride, Mean (SD)” value (Cohort C fasted state 250 mg single dose, Day 7 [Day 21]/Early termination, baseline mean 0.9596)?
**A.** Its value is 1.0571 mmol/L.

**Q.** What about the “Cholesterol, Mean (SD)” value (Cohort C fasted state 250 mg single dose, Day 7 [Day 21]/Early termination, baseline mean 4.1053) of the same molecule?
**A.** Its value is 4.0019 mmol/L.

**Q.** And the “HDL-C, Mean (SD)” value (Cohort C fasted state 250 mg single dose, Day 7 [Day 21]/Early termination, baseline mean 486.3)?
**A.** Its value is 438.8 (76.6) mg/L.

**Q.** And the “LDL-C, Mean (SD)” value (Cohort C fasted state 250 mg single dose, Day 7 [Day 21]/Early termination, baseline mean 900.0)?
**A.** Its value is 923.8 mg/L.

**Q.** What about the “Triglyceride, Mean (SD)” value (Cohort C fasted state 250 mg single dose, Follow up (n 4), baseline mean 0.9596) of the same molecule?
**A.** The value was 0.6295 mmol/L.

**Q.** What about the “Cholesterol, Mean (SD)” value (Cohort C fasted state 250 mg single dose, Follow up (n 4), baseline mean 4.1053) of the same molecule?
**A.** Its value is 3.9760 mmol/L.

**Q.** And the “HDL-C, Mean (SD)” value (Cohort C fasted state 250 mg single dose, Follow up (n 4), baseline mean 486.3)?
**A.** Its value is 445.0 mg/L.

**Q.** And the “LDL-C, Mean (SD)” value (Cohort C fasted state 250 mg single dose, Follow up (n 4), baseline mean 900.0)?
**A.** The value was 977.5 mg/L.

**Q.** What about the “Triglyceride, Mean (SD)” value (Cohort D 500 mg single dose, Day 2, baseline mean 0.7507) of the same molecule?
**A.** Its value is 1.2928 mmol/L.

**Q.** What about the “Cholesterol, Mean (SD)” value (Cohort D 500 mg single dose, Day 2, baseline mean 4.2838) of the same molecule?
**A.** Its value is 3.9005 mmol/L.

**Q.** And the “HDL-C, Mean (SD)” value (Cohort D 500 mg single dose, Day 2, baseline mean 546.7)?
**A.** Its value is 330.0 mg/L.

**Q.** What about the “LDL-C, Mean (SD)” value (Cohort D 500 mg single dose, Day 2, baseline mean 990.0) of the same molecule?
**A.** The value was 951.7 mg/L.

**Q.** And the “Triglyceride, Mean (SD)” value (Cohort D 500 mg single dose, Day 4, baseline mean 0.7507)?
**A.** Its value is 1.1327 mmol/L.

**Q.** What about the “Cholesterol, Mean (SD)” value (Cohort D 500 mg single dose, Day 4, baseline mean 4.2838) of the same molecule?
**A.** Its value is 3.8273 mmol/L.

**Q.** And the “HDL-C, Mean (SD)” value (Cohort D 500 mg single dose, Day 4, baseline mean 546.7)?
**A.** Its value is 340.0 (74.8) mg/L.

**Q.** And the “LDL-C, Mean (SD)” value (Cohort D 500 mg single dose, Day 4, baseline mean 990.0)?
**A.** The value was 950.0 mg/L.

**Q.** And the “Triglyceride, Mean (SD)” value (Cohort D 500 mg single dose, Day 7/Early termination, baseline mean 0.7507)?
**A.** The value was 0.9937 mmol/L.

**Q.** And the “Cholesterol, Mean (SD)” value (Cohort D 500 mg single dose, Day 7/Early termination, baseline mean 4.2838)?
**A.** Its value is 3.8103 mmol/L.

**Q.** What about the “HDL-C, Mean (SD)” value (Cohort D 500 mg single dose, Day 7/Early termination, baseline mean 546.7) of the same molecule?
**A.** The value was 421.7 (83.8) mg/L.

**Q.** And the “LDL-C, Mean (SD)” value (Cohort D 500 mg single dose, Day 7/Early termination, baseline mean 990.0)?
**A.** Its value is 928.3 mg/L.

**Q.** What about the “Triglyceride, Mean (SD)” value (Cohort D 500 mg single dose, Follow up, baseline mean 0.7507) of the same molecule?
**A.** Its value is 0.5627 mmol/L.

**Q.** And the “Cholesterol, Mean (SD)” value (Cohort D 500 mg single dose, Follow up, baseline mean 4.2838)?
**A.** Its value is 3.6505 mmol/L.

**Q.** What about the “HDL-C, Mean (SD)” value (Cohort D 500 mg single dose, Follow up, baseline mean 546.7) of the same molecule?
**A.** The value was 450.0 (85.1) mg/L.

**Q.** And the “LDL-C, Mean (SD)” value (Cohort D 500 mg single dose, Follow up, baseline mean 990.0)?
**A.** The value was 843.3 mg/L.

**Q.** And the “Triglyceride, Mean (SD)” value (Cohort E 1000 mg single dose, Day 2, baseline mean 1.0275)?
**A.** The value was 2.3427 mmol/L.

**Q.** What about the “Cholesterol, Mean (SD)” value (Cohort E 1000 mg single dose, Day 2, baseline mean 4.1332) of the same molecule?
**A.** Its value is 3.5257 mmol/L.

**Q.** What about the “HDL-C, Mean (SD)” value (Cohort E 1000 mg single dose, Day 2, baseline mean 413.3) of the same molecule?
**A.** Its value is 166.7 (45.5) mg/L.

**Q.** And the “LDL-C, Mean (SD)” value (Cohort E 1000 mg single dose, Day 2, baseline mean 986.7)?
**A.** Its value is 840.0 mg/L.

**Q.** What about the “Triglyceride, Mean (SD)” value (Cohort E 1000 mg single dose, Day 4, baseline mean 1.0275) of the same molecule?
**A.** Its value is 1.9683 mmol/L.

**Q.** And the “Cholesterol, Mean (SD)” value (Cohort E 1000 mg single dose, Day 4, baseline mean 4.1332)?
**A.** Its value is 3.2498 mmol/L.

**Q.** And the “HDL-C, Mean (SD)” value (Cohort E 1000 mg single dose, Day 4, baseline mean 413.3)?
**A.** Its value is 180.0 (52.5) mg/L.

**Q.** What about the “LDL-C, Mean (SD)” value (Cohort E 1000 mg single dose, Day 4, baseline mean 986.7) of the same molecule?
**A.** The value was 800.0 mg/L.

**Q.** What about the “Triglyceride, Mean (SD)” value (Cohort E 1000 mg single dose, Day 7/Early termination, baseline mean 1.0275) of the same molecule?
**A.** The value was 1.2210 mmol/L.

**Q.** What about the “Cholesterol, Mean (SD)” value (Cohort E 1000 mg single dose, Day 7/Early termination, baseline mean 4.1332) of the same molecule?
**A.** Its value is 3.7628 mmol/L.

**Q.** And the “HDL-C, Mean (SD)” value (Cohort E 1000 mg single dose, Day 7/Early termination, baseline mean 413.3)?
**A.** Its value is 303.3 (61.5) mg/L.

**Q.** What about the “LDL-C, Mean (SD)” value (Cohort E 1000 mg single dose, Day 7/Early termination, baseline mean 986.7) of the same molecule?
**A.** The value was 1003.3 mg/L.

**Q.** And the “Triglyceride, Mean (SD)” value (Cohort E 1000 mg single dose, Follow up, baseline mean 1.0275)?
**A.** The value was 0.7565 mmol/L.

**Q.** And the “Cholesterol, Mean (SD)” value (Cohort E 1000 mg single dose, Follow up, baseline mean 4.1332)?
**A.** The value was 3.7410 mmol/L.

**Q.** And the “HDL-C, Mean (SD)” value (Cohort E 1000 mg single dose, Follow up, baseline mean 413.3)?
**A.** Its value is 343.3 (47.2) mg/L.

**Q.** And the “LDL-C, Mean (SD)” value (Cohort E 1000 mg single dose, Follow up, baseline mean 986.7)?
**A.** Its value is 988.3 mg/L.

**Q.** What about the “Triglyceride, Mean (SD)” value (Cohort J 2000 mg single dose, Day 2, baseline mean 0.9975) of the same molecule?
**A.** The value was 2.0737 mmol/L.

**Q.** What about the “Cholesterol, Mean (SD)” value (Cohort J 2000 mg single dose, Day 2, baseline mean 4.4608) of the same molecule?
**A.** Its value is 3.9952 mmol/L.

**Q.** What about the “HDL-C, Mean (SD)” value (Cohort J 2000 mg single dose, Day 2, baseline mean 543.3) of the same molecule?
**A.** The value was 225.0 (76.6) mg/L.

**Q.** What about the “LDL-C, Mean (SD)” value (Cohort J 2000 mg single dose, Day 2, baseline mean 1051.7) of the same molecule?
**A.** Its value is 901.7 mg/L.

**Q.** And the “Triglyceride, Mean (SD)” value (Cohort J 2000 mg single dose, Day 4, baseline mean 0.9975)?
**A.** The value was 1.7668 mmol/L.

**Q.** What about the “Cholesterol, Mean (SD)” value (Cohort J 2000 mg single dose, Day 4, baseline mean 4.4608) of the same molecule?
**A.** The value was 3.4133 mmol/L.

**Q.** And the “HDL-C, Mean (SD)” value (Cohort J 2000 mg single dose, Day 4, baseline mean 543.3)?
**A.** The value was 171.7 (55.6) mg/L.

**Q.** And the “LDL-C, Mean (SD)” value (Cohort J 2000 mg single dose, Day 4, baseline mean 1051.7)?
**A.** Its value is 865.0 mg/L.

**Q.** And the “Triglyceride, Mean (SD)” value (Cohort J 2000 mg single dose, Day 7/Early termination, baseline mean 0.9975)?
**A.** The value was 0.7867 mmol/L.

**Q.** What about the “Cholesterol, Mean (SD)” value (Cohort J 2000 mg single dose, Day 7/Early termination, baseline mean 4.4608) of the same molecule?
**A.** Its value is 3.9437 mmol/L.

**Q.** And the “HDL-C, Mean (SD)” value (Cohort J 2000 mg single dose, Day 7/Early termination, baseline mean 543.3)?
**A.** Its value is 253.3 mg/L.

**Q.** What about the “LDL-C, Mean (SD)” value (Cohort J 2000 mg single dose, Day 7/Early termination, baseline mean 1051.7) of the same molecule?
**A.** Its value is 1135.0 mg/L.

**Q.** What about the “Triglyceride, Mean (SD)” value (Cohort J 2000 mg single dose, Follow up, baseline mean 0.9975) of the same molecule?
**A.** Its value is 0.4255 mmol/L.

**Q.** And the “Cholesterol, Mean (SD)” value (Cohort J 2000 mg single dose, Follow up, baseline mean 4.4608)?
**A.** The value was 3.7112 mmol/L.

**Q.** What about the “HDL-C, Mean (SD)” value (Cohort J 2000 mg single dose, Follow up, baseline mean 543.3) of the same molecule?
**A.** The value was 405.0 (45.9) mg/L.

**Q.** And the “LDL-C, Mean (SD)” value (Cohort J 2000 mg single dose, Follow up, baseline mean 1051.7)?
**A.** The value was 951.7 mg/L.
